From patent publication US20240140970A1, “A […], AND PREPARATION METHOD AND USE THEREOF” (ASCENTAWITS PHARMACEUTICALS, LTD., priority 2021, published 2024) come the findings set out here.

Values joined by “and” are separate entries in the source; they are usually repeats but may differ in a detail not shown here. Identical values can stand only once.

Series [1] in a line: Stability of treated (extracted) human urine samples of AST-2660 at room temperature (LC-MS/MS). The format is physicochemical. Conditions: 94 hours at room temperature. As to the method: (§1) The detection method established in example 6 was used to detect the content of AST-2660 in the human urine to be tested.
Matrix: the mixed normal human urine containing an additive Na2HPO4·12H2O. • a: the internal standard working solution: AST-2660-D8 was taken, dissolved with methanol, and diluted to prepare a solution containing about 100 ng per 1 ml. • b: the solution to be tested (no internal standard compound was added to the solution to be tested at this time): it was obtained by taking a blood sample to be tested. • c: the standard working solution (no internal standard compound was added to the standard working solution at this time): an appropriate amount of AST-2660 was taken and accurately weighed, dissolved with methanol and diluted to prepare a solution containing about 1.0 mg per 1 ml, which was used as the standard working stock solution. […]
(§2) Calculation results: the relationship function y=f (x) of the ratio of the peak area of AST-2660 to that of the internal standard was obtained from AST-2660 standard working solutions with different concentrations. The ratio of the peak area of AST-2660 to that of the internal standard was determined from the solution to be tested after extraction, and substituted into the relationship function y=f (x) to calculate the concentration of the metabolite II in the solution to be tested.

Series [2] is described as follows: Experimental table stability of AST-2660 in human urine at room temperature (LC-MS/MS). Format: in vitro ADME. The note with it: for RE (%) vs nominal / AST-2660 concentration, Mean value / AST-2660 concentration, single replicates: human urine, room temperature. The protocol: as §1
Matrix: the mixed normal human urine containing an additive Na2HPO4·12H2O. • a: the internal standard working solution: AST-2660-D8 was taken, dissolved with methanol, and diluted to prepare a solution containing about 100 ng per 1 ml. • b: the solution to be tested (no internal standard compound was added to the solution to be tested at this time): it was obtained by taking a blood sample to be tested. • c: the standard working solution (no internal standard compound was added to the standard working solution at this time): an appropriate amount of AST-2660 was taken and accurately weighed, dissolved with methanol and diluted to prepare a solution containing about 1.0 mg per 1 ml, which was used as the standard working stock solution. An appropriate amount of the standard working stock solution was taken, added with the matrix and diluted to prepare standard working solutions with different concentrations containing about 200 ng, 160 ng, 100 ng, 50 ng, 10 ng, 2.0 ng, 1.0 ng and 0.5 ng per 1 ml, respectively. (The solution was stored at −70° C.) • d: the quality control sample solution: an appropriate amount of AST-2660 was taken and accurately weighed, dissolved with methanol, and diluted to prepare a solution containing about 10 μg per 1 ml, which was used as the quality control working stock solution. An appropriate amount of the quality control working stock solution was taken, and added with the matrix to prepare quality control working solutions with different concentrations containing about 150 ng, 60 ng, 15 ng, 1.5 ng and 0.5 ng per 1 ml. (The solution was stored at −70° C.)
The solution to be tested, the standard working solution and the quality control sample solution were thawed at room temperature and mixed uniformly. 100 μl of the above solution was respectively taken, added with 20 μl of the internal standard and 500 μl of methanol, and vortexed for 3 minutes to mix uniformly, and then centrifuged for 30 minutes at 2143 rcf. 450 μl of supernatant was taken, and then centrifuged for 10 minutes in a 96-well plate at 2143 rcf. It was obtained by taking 300 μl of supernatant.
Liquid phase conditions: A SHARC 1, 3 μm, 2.1*50 mm or chromatograph column with equivalent performance was used; methanol solution containing low content of ammonium acetate was used; mobile phase B was acetonitrile; the gradient elution was performed according to the following table; column temperature: 20° C.; injection volume: 5 μl.
Mass spectrometric conditions: electrospray ion source with negative ion scanning mode; spray potential: −4500 V; ion source temperature: 500° C.; collision energy (CE): −22 eV; declustering potential (DP): −55V; entrance potential (EP): −10V; collision chamber exit potential (CXP): −16V; dwell time: 100 ms; high purity nitrogen was used for all gases; AST-2660 ions pairs: m/z 147.0→m/z 62.9; the internal standard AST-2660-D8 ion pairs: m/z 155.0→m/z 62.9.
The AST-2660 standard working solution, blank sample, zero concentration sample, solution to be tested and quality control working solution with different concentrations after extraction were respectively taken and injected into LC-MS/MS for detection.
as §2

Where [3] appears, read: QC1 nominal 1.50 ng/ml, 4 hours.
The mark [4] stands for this setting: QC1 nominal 1.50 ng/ml, 24 hours.
Where [5] appears, read: QC4 nominal 150 ng/ml, 24 hours.

Take `O=P([O-])(N1CC1)N1CC1.[Na+]` [AST-2660]: the “stability (in words)” value was “stable” in series [1] and “stable” in series [2] (untreated human urine samples, 24 hours at room temperature). Besides, in series [2] (human urine at room temperature for 4 hours, 1.5, 150 and 1500 ng/ml), the “RE (accuracy), range over three concentration levels” value was “RE: −8.5% to 4.5%”. The “RE (%) vs nominal” value in series [2] (DilQC (10-fold dilution) nominal 1500 ng/ml, 0 hour) is given as −5.7%; in series [2] (DilQC (10-fold dilution) nominal 1500 ng/ml, 4 hours), −5.7%; in series [2] (DilQC (10-fold dilution) nominal 1500 ng/ml, 24 hours), −13.2%; in series [2] (QC1 nominal 1.50 ng/ml, 0 hour), −8.5%; in series [2] (setting [3]), −3.7%; in series [2] (setting [4]), 26.7%. Besides, the “RE (%) vs nominal” value in series [2] (QC4 nominal 150 ng/ml, 0 hour) is listed as −4.5%; in series [2] (QC4 nominal 150 ng/ml, 4 hours), 4.5%; in series [2] (setting [5]), 0.8%. Besides, the “AST-2660 concentration, Mean value” in series [2] (QC1 nominal 1.50 ng/ml, 0 hour) was determined as 1.37 ng/mL; in series [2] (setting [3]), 1.45 ng/mL; in series [2] (setting [4]), 1.90 ng/mL. Besides, the “AST-2660 concentration, single replicates” value is 1.44 ng/mL in series [2] (QC1 nominal 1.50 ng/ml, 0 hour); 1.51 ng/mL in series [2] (setting [3]); 2.07 ng/mL in series [2] (setting [4]); 141 ng/mL and 144 ng/mL and 142 ng/mL and 146 ng/mL in series [2] (QC4 nominal 150 ng/ml, 0 hour); 156 ng/mL and 154 ng/mL and 159 ng/mL in series [2] (QC4 nominal 150 ng/ml, 4 hours); 149 ng/ml (2×) and 154 ng/ml in series [2] (setting [5]).
